Laboratory results reported in patent US20160030522A1, “COMBINATION THERAPY TO IMPROVE SOFT TISSUE HEALING, FAT GRAFT HEALING, ENDOCHONDRAL BONE HEALING AND OSTEOINTEGRATION” (priority 2013, published 2016).

Test system: trephine defect
Assay: Bony ingrowth / regeneration in the trephine defect after systemic treatment of mice
Type: in vivo
Conditions: systemic administration
Procedure: Mice and Injury Model: All experiments are performed in accordance with the IACUC guidelines. C57BL/6J wild-type mice aged 8-12 weeks are purchased from Jackson Laboratories (Bar Harbor, Me.). Mice are randomized to receive one of #1) no injury; #2) an implant stud having a porous polyethylene-polypropylene coating placed in a defect in the distal femur. […] Treatment Groups: Mice in each of the 4 experimental groups are randomly assigned to receive once daily one of: #1) saline i.p. injection; #2) AMD3100 (10 mg/kg, i.p.; PLERIXAFOR®; Genzyme Corp., Cambridge, Mass.) injection; #3) Teriparatide (0.285 mcg/kg, i.p.; FORTEO®; Eli Lilly and Company, Indianapolis, Ind.); or #4) AMD3100 (10 mg/kg, i.p.; PLERIXAFOR®; Genzyme Corp., Cambridge, Mass.); and teriparatide (0.285 mcg/kg, i.p.; FORTEO®; Eli Lilly and Company, Indianapolis, Ind.). […] BM is flushed from mouse long bones using PBS/10% FBS/5% EDTA, as previously described. Mononuclear cells (MNCs) from the peripheral blood and BM are isolated by density gradient centrifugation using Histopaque 1083 (Sigma-Aldrich; St. Louis, Mo.). […] Adobe Photoshop CS3 is used to segment and quantify positive CD31 staining. The vascular density of mouse wounds is determined by quantifying the total area of CD31+ staining (red) per megapixel (1×106 pixels square area) of wound stained.

Compound | bony ingrowth / bony regeneration [%]
c1cc(CN2CCCNCCNCCCNCC2)ccc1CN1CCCNCCNCCCNCC1 [AMD3100] | 59.7
CC[C@H](C)[C@H](NC(=O)[C@H](CCC(=O)O)NC(=O)[C@H](CO)NC(=O)[C@@H](NC(=O)[C@@H](N)CO)C(C)C)C(=O)N[C@@H](CCC(N)=O)C(=O)N[C@@H](CC(C)C)C(=O)N[C@@H](CCSC)C(=O)N[C@@H](Cc1cnc[nH]1)C(=O)N[C@@H](CC(N)=O)C(=O)N[C@@H](CC(C)C)C(=O)NCC(=O)N[C@@H](CCCCN)C(=O)N[C@@H](Cc1cnc[nH]1)C(=O)N[C@@H](CC(C)C)C(=O)N[C@@H](CC(N)=O)C(=O)N[C@@H](CO)C(=O)N[C@@H](CCSC)C(=O)N[C@@H](CCC(=O)O)C(=O)N[C@@H](CCCN=C(N)N)C(=O)N[C@H](C(=O)N[C@@H](CCC(=O)O)C(=O)N[C@@H](Cc1c[nH]c2ccccc12)C(=O)N[C@@H](CC(C)C)C(=O)N[C@@H](CCCN=C(N)N)C(=O)N[C@@H](CCCCN)C(=O)N[C@@H](CCCCN)C(=O)N[C@@H](CC(C)C)C(=O)N[C@@H](CCC(N)=O)C(=O)N[C@@H](CC(=O)O)C(=O)N[C@H](C(=O)N[C@@H](Cc1cnc[nH]1)C(=O)N[C@@H](CC(N)=O)C(=O)N[C@@H](Cc1ccccc1)C(=O)O)C(C)C)C(C)C [PTH] | 56
